Tested on: AChE
Experiment: not given
Conditions: AChE inhibition; cited from earlier work

Row | SMILES | IC50
1 | C[C@H]1[C@H](C)CC[C@]2(C(=O)O)CC[C@]3(C)C(=CC[C@@H]4[C@@]5(C)C[C@@H](O)[C@H](O)[C@@](C)(CO)[C@@H]5CC[C@]43C)[C@H]12 [asiatic acid] | 15.05 ± 0.05 µM

Biological target: T1, AChE from electric eel type VI-S (Electrophorus electricus, UniProt O42275)
T1 construct: purchased Sigma Aldrich
Experiment: TLC-bioautography assay towards AChE inhibition
Type: biochemical
Conditions: not given
Protocol: Six standards of oleanane-type triterpenes: arjunic acid, arjunolic acid, arjungenin, arjunglucoside I, sericic acid and arjunetin—purchased from Sigma Aldrich (St. Louis, MO, USA)—were prepared at the concentration of 1 mg/mL in double-distilled water: methanol (50:50 v/v) and they were applied separately at the surface of the aluminum normal phase 10 cm × 10 cm TLC plate (Silica gel 60 F254, Merck, Darmstadt, Germany) with an autosampler (Camag, Muttenz, Switzerland) as the 6 mm zones, distant from one another by 1.5 cm horizontally and 2 cm vertically. Every reference solution was applied as 4, 6, 8 and 10 µL volume bands on three TLC plates.
The TLC plates were later subjected to the enzymatic assay according to the previously published protocol, with some modifications.
As the TLC plate was not developed in a TLC solvent system but was used directly in the TLC bioautographic assay, the authors modified the previously published protocol and sprayed the TLC with the substrate (2-naphtyl acetate; Sigma Aldrich, St. Louis, […], USA) dissolved in distilled water at the quantity of 30 mg/20 mL. The TLC was dried in cold air and later the solution of the AChE enzyme (AChE from electric eel type VI-S, Sigma Aldrich, St. Louis, […], USA) dissolved in the aqueous solution of Tris-HCl buffer (pH 7.8; Sigma Aldrich, St. Louis, […], USA) with […] (500 mg/100 mL, Sigma Aldrich, St. Louis, […], USA) at the quantity of 3 U/mL was sprayed on the TLC plate and incubated at the temperature of 37 °C for the following 20 min in a humid incubator. In the next step, the Fast Blue B (Sigma Aldrich, St. Louis, […], USA) solution (0.615 mg/mL) was sprayed on the plate and visualized active zones as white spots against the violet background. The area of the discolored zones corresponded to the inhibitory strength of the respective zones.
Finally, the TLC plate was dried in the air and analyzed by a Camag TLC visualizer (Camag, Muttenz, Switzerland) under visible light. The peak areas of the discolored zones were automatically calculated by the WinCats program (version 1.4, Camag, Muttenz, Switzerland) and their size was compared to calculate the IC50 values that corresponded to the concentration of the standard giving the half maximum inhibition of the AChE enzyme.

T1 sequence (O42275 24-633): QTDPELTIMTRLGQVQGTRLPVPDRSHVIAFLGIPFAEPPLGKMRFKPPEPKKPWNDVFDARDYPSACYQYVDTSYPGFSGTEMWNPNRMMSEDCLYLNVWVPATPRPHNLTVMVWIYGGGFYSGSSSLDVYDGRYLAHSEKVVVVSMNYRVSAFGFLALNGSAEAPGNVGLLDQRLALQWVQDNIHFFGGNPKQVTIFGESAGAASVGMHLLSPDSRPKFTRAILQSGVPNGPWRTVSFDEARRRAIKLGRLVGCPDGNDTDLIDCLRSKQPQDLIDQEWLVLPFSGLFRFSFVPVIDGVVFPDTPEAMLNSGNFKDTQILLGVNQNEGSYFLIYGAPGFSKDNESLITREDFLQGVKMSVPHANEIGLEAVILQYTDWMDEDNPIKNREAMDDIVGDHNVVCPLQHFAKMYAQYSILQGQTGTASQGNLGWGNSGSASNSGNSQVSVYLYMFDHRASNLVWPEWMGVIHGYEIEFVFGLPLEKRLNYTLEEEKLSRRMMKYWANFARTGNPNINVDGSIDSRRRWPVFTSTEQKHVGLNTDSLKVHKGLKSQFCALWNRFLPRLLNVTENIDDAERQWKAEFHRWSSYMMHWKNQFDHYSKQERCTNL

Row | SMILES | IC50
3 | CC1(C)CC[C@]2(C(=O)O[C@@H]3O[C@H](CO)[C@@H](O)[C@H](O)[C@H]3O)CC[C@]3(C)C(=CC[C@@H]4[C@@]5(C)C[C@@H](O)[C@H](O)C(C)(C)[C@@H]5CC[C@]43C)[C@@H]2[C@@H]1O [Arjunetin] | 18.8 µM
4 | CC1(C)CC[C@]2(C(=O)O)CC[C@]3(C)C(=CC[C@@H]4[C@@]5(C)C[C@@H](O)[C@H](O)[C@@](C)(CO)[C@@H]5CC[C@]43C)[C@@H]2[C@@H]1O [Arjungenin] | 19.5 µM
5 | CC1(C)CC[C@]2(C(=O)O[C@@H]3O[C@H](CO)[C@@H](O)[C@H](O)[C@H]3O)CC[C@]3(C)C(=CC[C@@H]4[C@@]5(C)C[C@@H](O)[C@H](O)[C@@](C)(CO)[C@@H]5CC[C@]43C)[C@@H]2[C@@H]1O [Arjunglucoside I] | 13.2 µM
6 | CC1(C)CC[C@]2(C(=O)O)CC[C@]3(C)C(=CC[C@@H]4[C@@]5(C)C[C@@H](O)[C@H](O)C(C)(C)[C@@H]5CC[C@]43C)[C@@H]2[C@@H]1O [Arjunic acid] | 20.7 µM
7 | CC1(C)CC[C@]2(C(=O)O)CC[C@]3(C)C(=CC[C@@H]4[C@@]5(C)C[C@@H](O)[C@H](O)[C@@](C)(CO)[C@@H]5CC[C@]43C)[C@@H]2C1 [Arjunolic acid] | 16.2 µM
8 | CC1(C)CC[C@]2(C(=O)O)CC[C@]3(C)C(=CC[C@@H]4[C@@]5(C)C[C@@H](O)[C@H](O)[C@](C)(CO)[C@@H]5CC[C@]43C)[C@@H]2[C@@H]1O [Sericic acid] | 16.4 µM
